From patent publication US20080207592A1, “Novel 1,4-benzothiazepine-1,1-dioxide derivative having improved properties, method for the production thereof, medicaments containing said compound, and use thereof” (SANOFI-AVENTIS DEUTSCHLAND GMBH, priority 2005, published 2008) come the findings set out here.

pIC50: −log10 of the molar value.

This assay concerns the target T1, recombinantly expressed human sodium-dependent ileal bile acid transporter (IBAT) (Homo sapiens, UniProt Q12908).
T1 construct: Bases 599 to 1645 correspond to the complete coding region of the human IBAT; expressed in transfected cells
T1 sequence (Q12908 1-348): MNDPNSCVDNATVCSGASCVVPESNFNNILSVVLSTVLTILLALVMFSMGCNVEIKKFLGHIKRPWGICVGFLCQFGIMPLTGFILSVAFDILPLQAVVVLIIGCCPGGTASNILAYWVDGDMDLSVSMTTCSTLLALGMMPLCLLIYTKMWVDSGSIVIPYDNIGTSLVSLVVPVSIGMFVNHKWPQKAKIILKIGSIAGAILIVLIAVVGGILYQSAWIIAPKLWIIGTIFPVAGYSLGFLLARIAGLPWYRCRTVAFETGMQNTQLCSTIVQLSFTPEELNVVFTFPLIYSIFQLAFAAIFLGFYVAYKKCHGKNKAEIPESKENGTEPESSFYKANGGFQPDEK
Put plainly: in vitro IBAT inhibition test ([3H]-taurocholic acid uptake into CHO-hIBAT cells). It is filed as cell-based. Conditions: for pIC50: CHO-hIBAT cells, taurocholic acid 10 μM, 60 min at room temperature. How it is done: Biological testing of the compound A according to the invention was carried out using the in vitro IBAT inhibition test. This test examines the effect of the compound according to the invention on the transport activity of the recombinantly expressed human sodium-dependent ileal bile acid transporter (IBAT=ileal Na^+/bile acid contransporter, ASBT=apical sodium-dependent bile acid transporter, SLC10A2=solute carrier family 10, member 2).
The cDNA (complementary deoxyribonucleic acid) of human IBAT was cloned using standard methods of molecular biology as described, for example, in Molecular Cloning: A Laboratory Manual, by Joseph Sambrook and David Russell, and introduced into the pcDNA1 vector from Invitrogen. […] Bases 599 to 1645 correspond to the complete coding region of the human IBAT.
The expression vector for the human IBAT was introduced by means of stable transfection into CHO (Chinese hamster ovary) cells. To select single cell clones, 400 μg/ml of geneticin was added to the cell culture medium (Ham's F12 medium supplemented with 10% fetal calf serum, 100 units/ml of penicillin, 100 units/ml of streptomycin). The functionality of the single cell clones resulting from the selection was tested via their uptake activity for radioactively labeled taurocholic acid ([^3H]-TCA). […]
CHO-hIBAT cells were sown at a concentration of 40 000 cells per well in cell culture medium in poly-D-lysine-coated 96-well plates and cultivated for 24 h. […] Finally, 100 μl of scintillation fluid were added to each well, and the radioactivity taken up into the cells was determined in a MicroBeta scintillation microplate reader from Wallac.
The half-maximal inhibitory effect of the test compound (IC50 value, inhibitory concentration 50) was determined as follows:
1. […] This is the value measured in the absence of substance, measured in sodium-comprising transport assay buffer.
2. […] This is the value measured in the absence of substance, measured in sodium-free transport assay buffer. […]

For `CCCCC1(CCCC)CS(=O)(=O)c2ccc(N(C)C)cc2[C@@H](c2cccc(NC(=O)NC[C@H](O)[C@@H](O)[C@H](O)[C@H](O)CO)c2)N1` [Example A], the pIC50 (commonly the IC50 on a negative log10 scale, so that one unit is a factor of ten) was 6.81. For the same compound, the “activity compared to comparative example from EP 1 169 313 (higher)” value (relative to compound 11a of EP 1 169 313, from IC50 (human IBAT)) amounted to 206%.

Turning to `CCCCC1(CCCC)CS(=O)(=O)c2ccc(N(C)C)cc2[C@@H](c2cccc(NC(=O)[C@H](O)[C@@H](O)[C@H](O)[C@H](O)CO)c2)N1` [compound 11a, reference compound], the negative-log IC50 (pIC50) was 6.50.
